Activity calls are given as the source filed them. No cut-off for these calls is given here.
Assays:
[1] = target: Glutamate receptor ionotropic AMPA (Homo sapiens, UniProt P42261+P42262+P42263+P48058); assay: Positive allosteric modulation at AMPAR in HEK293 cells expressing GluA2Qi subunit assessed as glutamate induced calcium influx; type: cell-based
[2] = target: T1, Glutamate receptor ionotropic, AMPA (Rattus norvegicus) (UniProt P19491+P19492+P19493+P19490); assay: Positive allosteric modulation at AMPAR in rat Primary embryonic cortical cell assessed as concentration required for 2 fold increase in AMPA induced fluorescence by FlipR assay; type: cell-based; conditions: filed as positive allosteric modulator
[3] = target: T1, Glutamate receptor ionotropic, AMPA (Rattus norvegicus); assay: Positive allosteric modulation at AMPAR in rat Primary embryonic cortical cell assessed as concentration required for 2 fold increase in AMPA induced fluorescence; type: cell-based; conditions: filed as positive allosteric modulator
[4] = target: Glutamate receptor ionotropic kainate 1 (Homo sapiens) (UniProt P39086); assay: Positive allosteric modulation at kainate receptor in HEK293 cells expressing GluK1-Q1b assessed as glutamate induced calcium influx by measuring efficacy relative to control; conditions: filed as positive allosteric modulator
Glutamate receptor ionotropic kainate 1 (Homo sapiens), sequence (P39086 whole entry, looked up): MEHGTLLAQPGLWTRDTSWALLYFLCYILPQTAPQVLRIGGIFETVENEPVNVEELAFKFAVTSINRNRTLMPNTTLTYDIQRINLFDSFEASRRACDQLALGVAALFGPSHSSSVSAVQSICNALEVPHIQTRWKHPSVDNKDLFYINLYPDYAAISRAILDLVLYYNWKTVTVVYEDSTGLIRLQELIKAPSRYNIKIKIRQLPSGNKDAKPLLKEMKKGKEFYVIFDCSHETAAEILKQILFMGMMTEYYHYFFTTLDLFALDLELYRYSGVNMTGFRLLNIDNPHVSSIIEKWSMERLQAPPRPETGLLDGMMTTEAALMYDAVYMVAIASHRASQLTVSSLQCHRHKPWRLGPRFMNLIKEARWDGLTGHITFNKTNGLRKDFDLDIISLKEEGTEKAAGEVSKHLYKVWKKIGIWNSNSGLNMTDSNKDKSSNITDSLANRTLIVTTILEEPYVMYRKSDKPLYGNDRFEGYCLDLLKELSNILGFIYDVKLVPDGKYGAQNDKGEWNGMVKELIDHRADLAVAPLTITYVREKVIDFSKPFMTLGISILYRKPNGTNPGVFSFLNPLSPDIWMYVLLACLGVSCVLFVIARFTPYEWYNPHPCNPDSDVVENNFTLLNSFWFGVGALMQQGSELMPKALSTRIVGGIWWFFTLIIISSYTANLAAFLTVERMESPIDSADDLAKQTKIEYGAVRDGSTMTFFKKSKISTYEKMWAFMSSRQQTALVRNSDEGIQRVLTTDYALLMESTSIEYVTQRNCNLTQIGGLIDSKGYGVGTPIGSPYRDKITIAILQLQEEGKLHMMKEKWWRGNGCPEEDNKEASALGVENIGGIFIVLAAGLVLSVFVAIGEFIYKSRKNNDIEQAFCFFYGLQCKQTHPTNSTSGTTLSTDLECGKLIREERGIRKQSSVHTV

[5] = target: Glutamate receptor ionotropic kainate 2 (Homo sapiens) (UniProt Q13002); assay: Positive allosteric modulation at kainate receptor in HEK293 cells expressing GluK2-Q2a assessed as glutamate induced calcium influx by measuring efficacy relative to control; conditions: filed as positive allosteric modulator
Glutamate receptor ionotropic kainate 2 (Homo sapiens), sequence (Q13002 whole entry, looked up): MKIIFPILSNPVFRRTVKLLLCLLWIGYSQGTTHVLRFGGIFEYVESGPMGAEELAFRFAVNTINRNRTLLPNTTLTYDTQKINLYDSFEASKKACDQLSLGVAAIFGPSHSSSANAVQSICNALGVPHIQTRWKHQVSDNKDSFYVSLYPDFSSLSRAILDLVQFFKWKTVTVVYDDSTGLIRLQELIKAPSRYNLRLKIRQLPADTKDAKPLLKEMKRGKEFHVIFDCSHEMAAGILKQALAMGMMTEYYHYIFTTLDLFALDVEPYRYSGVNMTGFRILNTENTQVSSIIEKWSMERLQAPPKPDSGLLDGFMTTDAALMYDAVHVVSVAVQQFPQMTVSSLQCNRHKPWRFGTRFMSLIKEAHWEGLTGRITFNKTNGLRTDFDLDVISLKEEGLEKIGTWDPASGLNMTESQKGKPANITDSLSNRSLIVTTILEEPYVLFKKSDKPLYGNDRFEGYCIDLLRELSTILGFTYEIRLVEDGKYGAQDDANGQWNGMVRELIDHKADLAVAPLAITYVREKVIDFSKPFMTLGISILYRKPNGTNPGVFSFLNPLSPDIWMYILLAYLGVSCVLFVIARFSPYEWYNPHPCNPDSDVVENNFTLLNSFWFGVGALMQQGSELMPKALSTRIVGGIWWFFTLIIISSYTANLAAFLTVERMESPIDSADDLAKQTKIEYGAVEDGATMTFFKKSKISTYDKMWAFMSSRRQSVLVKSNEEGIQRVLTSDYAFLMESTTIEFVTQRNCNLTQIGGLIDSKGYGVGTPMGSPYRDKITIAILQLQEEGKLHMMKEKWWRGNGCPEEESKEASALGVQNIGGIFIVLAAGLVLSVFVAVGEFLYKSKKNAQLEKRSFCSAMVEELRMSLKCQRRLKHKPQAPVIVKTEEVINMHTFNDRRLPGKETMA

[6] = target: Glutamate receptor ionotropic AMPA (Homo sapiens) (UniProt P48058+P42263+P42262+P42261); assay: Positive allosteric modulation at AMPAR in HEK293 cells expressing GluA2 assessed as glutamate induced calcium influx by measuring efficacy relative to control; type: cell-based; conditions: filed as positive allosteric modulator
[7] = Toxicity in NMR1 mouse assessed as pro-convulsant effect at 100 mg/kg measured upto 180 mins; type: organism-based; conditions: in vivo, 3 h
[8] = Toxicity in NMR1 mouse assessed as effect on hypothermia at 100 mg/kg measured upto 180 mins; type: organism-based; conditions: in vivo, 3 h
Mus musculus [9] = assay: Cognition enhancing effect in CD1 mouse assessed as increase in exploration time spent on new object at 3 mg/kg, po measured after 1 hr by object recognition test (reference value: 35%); type: functional
Rattus norvegicus = assay: Cognition enhancing effect in Wistar rat assessed as increase in amplitude of initial post-synaptic response at 30 mg/kg, ip pretreated for 1 hr followed by tetanic stimulation and measured for 3 hrs; type: functional, organism-based; conditions: time 4.0 hrs
Mus musculus [10] = assay: Cognition enhancing effect in CD1 mouse assessed as increase in exploration time spent on new object at 1 mg/kg, po measured after 1 hr by object recognition test (reference value: 35%); type: functional
[11] = target: T1, Glutamate receptor ionotropic, AMPA (Rattus norvegicus); assay: Positive allosteric modulation at AMPAR in rat Primary embryonic cortical cell assessed as concentration required for 2 fold increase in AMPA induced fluorescence by FDSS fluorescence assay; type: cell-based; conditions: Cerebral cortex cell, filed as positive allosteric modulator
[12] = Toxicity in NMR1 mouse assessed as effect on hypothermia at 30 mg/kg measured upto 180 mins; type: organism-based; conditions: in vivo, 3 h
[13] = target: T1, Glutamate receptor ionotropic, AMPA (Rattus norvegicus); assay: Positive allosteric modulation of rat cortex AMPAR expressed in xenopus oocytes assessed as concentration required for 2 fold increase in AMPA induced […]; type: cell-based; conditions: Oocyte, filed as positive allosteric modulator

EC50 [1] [µM]	EC [2] [µM]	Efficacy [4] [%]	Efficacy [5] [%]	SMILES	further results
> 100	40.1			CN1C2CCCN2c2cc(Cl)sc2S1(=O)=O (centres undefined)	
				O=S1(=O)CCC(C2CC2)c2ccc(F)cc21 (centres undefined)	EC [3]: 2.2 µM
26.9	18.5	112	80	C=CCN1CNS(=O)(=O)c2sc(Cl)cc21	Activity [6]: 126%
				O=S1(=O)NCN(C2CC2)c2ccc(F)cc21	Activity [6]: 100%; EC [3]: 0.27 µM
				O=S1(=O)NC2CCCN2c2cc(Cl)sc21 (centres undefined)	Activity [7]: Non-Toxic; Activity [8]: Non-Toxic; Activity (Mus musculus [9]): 69%; Activity (Rattus norvegicus): Active; Activity (Mus musculus [10]): 82%
4.7		50	80	O=S1(=O)NCN(C2CC2)c2cc(Cl)sc21	Activity [6]: 126%; EC [11]: 0.24 µM; Activity [12]: Toxic
76.5	80.4			C=CCN1CN(C)S(=O)(=O)c2sc(Cl)cc21	
31.5		50	60	CC1N(CC(F)F)c2cc(Cl)sc2S(=O)(=O)N1C (centres undefined)	EC [11]: 1.2 µM
24.6	6.4	50	60	CCN1c2cc(Cl)sc2S(=O)(=O)N(C)C1C (centres undefined)	
39.9				CN1CN(CC(F)F)c2cc(Cl)sc2S1(=O)=O	EC [11]: 24.5 µM
				O=S1(=O)N[C@H]2CCCN2C2CCCCC21 (some centres undefined)	EC [13]: 24.6 µM
